Experimental data as given in paper PMC9450014, “The evaluation of ADME and pharmacokinetic properties of decoquinate derivatives for the treatment of malaria” (Frontiers in Pharmacology, 2022).
Read-outs that look alike come from different tables or passages of the source.

Experiments:
Plasma stability = format: in vitro ADME; conditions: human plasma
Procedure: Stock solutions of compounds in DMSO were used to spike pooled human plasma. Samples were transferred in duplicate to 6 different wells of a 96-deep well plate. An aliquot of each sample was immediately quenched with ice cold acetonitrile containing the internal standard carbamazepine (0.1 μM), after which the plate was incubated in a water bath (37°C for 1 h). Aliquots of samples were removed at 5, 15, 40, 60, and 180 min and quenched with ice cold acetonitrile. After samples of the final time point were precipitated, the supernatant was transferred to a round bottom 96-well plate for analysis by LC-MS/MS using a reverse phase Gemini NX-C18 column (5 μM, 2.1 mm × 50 mm) with a Shimadzu HPLC coupled with an AB Sciex 3200 Q TRAP MS). The peak area ratios were used to calculate the amount of parent compound remaining and t1/2 in plasma, using the following equations.
% Parent remaining % Parent= Normalised peak area of sample at timepoint/Normalised peak area of sample at t=0 x 100
Predicted t1/2 t1/2= −0.693/λ Where λ is the slope of the Ln % parent remaining vs. time curve.

[1] = Non-specific liver microsomal binding, MLM; format: in vitro ADME; conditions: mouse liver microsomes
Procedure: Plasma protein binding was determined in pooled human plasma using an ultracentrifugation method. Stock solutions of test compounds were diluted in phosphate buffer and spiked into plasma in deep well 96-well plates. An aliquot of each compound was immediately precipitated with ice cold acetonitrile containing the internal standard carbamazepine (0.1 μM). These served as total concentration samples. After incubation in a water bath (37°C for 1 h), samples were transferred to ultracentrifuge tubes in duplicate and centrifuged for 4 h at 37°C and 30,000 g (Optima L-80XP, Beckman). Following centrifugation, the supernatant was transferred to the plate containing the total concentration samples and precipitated with ice cold acetonitrile containing the internal standard. Samples were analysed by LC-MS/MS (Shimadzu HPLC coupled with an AB Sciex 3200 Q TRAP MS). Non-specific binding in mouse liver microsomes (MLM) and human liver microsomes (HLM) were also determined with the ultracentrifugation method. Stock solutions of compounds (10 mM) were added in duplicate to microsome solution (0.5 mg/mL) in phosphate buffer (pH 7.4) to obtain a final drug concentration of 1 μM. The same method as for plasma protein binding was utilized. Analyte concentrations of all compounds were determined via LC-MS/MS (reverse phase Gemini NX-C18 column and Shimadzu HPLC coupled with an AB Sciex 3200 Q TRAP MS).

Pf NF54 = conditions: ref Beteck et al., 2018, cited from earlier work
[2] = Lipophilicity, 1-octanol/phosphate buffer pH 7.4 (LogD7.4); format: physicochemical
Procedure: Stock solutions ([…]) of compounds were diluted to 100 μM in 96-well deep-well plate containing 1-octanol and phosphate buffer at pH 7.4. The plate was agitated on an orbital shaker at 750 rpm for 2 h. The organic and buffer layers of each well were transferred separately to a new analysis plate. The samples were analysed with the HPLC-diode array detection as described for kinetic solubility. Samples from both layers were analysed to determine LogD7.4 values.

[3] = Kinetic solubility in PBS (HPLC-DAD); format: physicochemical; conditions: phosphate buffer saline (PBS); for solubility kinetic at 2 h: aqueous buffer, kinetic from dmso stock
Procedure: Stock concentrations of test samples (10 mM) were prepared in DMSO and diluted to a final concentration of […] in phosphate buffer saline (PBS) solutions at pH 2, 6.5, and 7.4 in flat-bottomed 96-well plates. A three-point calibration curve of each control and test compound was prepared from stock solutions in DMSO. Plates were agitated on an orbital shaker at room temperature for 2 h at 200 rpm and subsequently analysed using a reverse phase Gemini NX-C18 column (5 μM, 2.1 mm × 50 mm) with an Agilent 1,200 Rapid Resolution HPLC and diode array detection.

[4] = Metabolic stability in mouse liver microsomes; format: in vitro ADME
Procedure: A 5-point metabolic stability assay in human and mouse liver microsomes were performed in duplicate in 96-well plates. Stock solution of RMB005, −059 and 060 prepared in DMSO were individually incubated at 37°C in mouse and pooled human liver microsomes (0.4 mg/mL). An aliquot was removed at 0 min and quenched with ice cold acetonitrile containing the internal standard carbamazepine (0.1 μM). The cofactor NADPH was added, and the reactions were subsequently stopped at time points 5, 10, 30, and 60 min by removal of an aliquot and quenching with ice cold acetonitrile containing the internal standard. The supernatant of all samples were analysed via LC-MS/MS analysis (reverse phase Gemini NX-C18 column and Shimadzu HPLC and AB Sciex 3200 Q TRAP MS). Calculation of in vitro t1/2, intrinsic clearance rate (CLint) and predicted in vivo clearance (CLH) was carried out using the following equations ([Obach 1999]). CLintClint= 0.693/t1/2(min) ×Volume of incubation (μL)/microsomal protein (μg) Where t1/2 is calculated in minutes.
Predicted in vivo CLH CLH=Q × fu(plasma)×CLint/fu(mic)/Q+ fu(plasma)× CLint/fu(mic) Where Q is the hepatic blood flow of mouse (90 mL/min/kg) or human (20.7 mL/min/kg). Fu(plasma) is the unbound drug fraction in the plasma and fu(mic) is the unbound fraction in the microsomes.
The equation below was used in the case of RMB059 and -060, where protein-binding data were not available. CLH=Q × CLint/Q+ CLint

Plasma stability (in words) (Plasma stability): good plasma stability
Plasma stability (in words) (Plasma stability; listed as RMB-005): relatively stable
half-life (Plasma stability; pooled plasma, 37°C): > 2.5 h
Bound to microsomes [1]: 99%
logD at 2 h [2]: 3.2
solubility kinetic at 2 h ([3]; PBS pH 2, read-out: Kinetic solubility pH 2): < 5 µM
solubility kinetic at 2 h ([3]; PBS pH 6.5, read-out: Kinetic solubility pH 6.5): < 5 µM
solubility kinetic at 2 h ([3]; PBS pH 7.4, read-out: Kinetic solubility pH 7.4): < 5 µM
solubility at 2 h ([3]; all pH levels tested (pH 2, 6.5, 7.4)): < 5 µM
half-life ([4]; mouse liver microsomes, NADPH, read-out: Degradation half-life MLM): 1.22 h
CLint scaled ([4]; mouse, liver microsomes, calculated from t1/2 in MLM, read-out: In vitro CLint MLM): 104 mL/min/kg
Estimated in vivo CLH MLM ([4]; protein binding data included): 81.2 mL/min/kg
SMILES: CCCCCCCCCCOc1cc2c(=O)c(C(=O)NCCOCCO)c[nH]c2cc1OCC [RMB005]
IC50 (Pf NF54; Pf NF54, read-out: NF54 IC50 (line in the PK figures, in vitro IC50 in the discussion)): 40 nM
IC50 (Pf NF54; read-out: IC50 against Pf NF54): 40.4 nM
